Results published in US20090227617A1, “Esters Of Glucuronide Prodrugs Of Anthracyclines And Method Of Preparation And Use In Tumor-Selective Chemotherapy” (Pharmachemie B.V., priority 2008, published 2009).
Where two headings read alike, the source gives them in different places.

Experiments:
OVCAR-3 cells = experiment: In vitro antiproliferative effects in OVCAR-3 cells (crystal violet assay), with or without bovine beta-glucuronidase (GUS); type: cell-based, human; conditions: for IC50: 3 days incubation; for toxicity compared with doxorubicin: in the presence of GUS
Procedure: The toxicity of the prodrugs was tested with OVCAR-3 cells. The cells were incubated for 3 days with the different prodrugs DOX-alGA3, DOX-mPEG4-GA3, DOX-mPEG7-GA3, and for comparison also with Doxorubicin, in fetal bovine serum (FBS), in the presence or absence of bovine beta-glucuronidase (GUS).
The concentrations used for the prodrugs ranged from 0.001 μM to 50 μM.
In vitro antiproliferative effects in OVCAR-3 cells after 3 days of incubation with the different (pro)-drugs DOX, DOX-alGA3, DOX-mPEG4-GA3 and DOX-mPEG7-GA3 in the presence or absence of bovine beta-glucuronidase(GUS).
The concentrations used for the prodrugs ranged from 0.001 μM to 50 μM, the GUS enzyme was added to give a final concentration of 10 units/μl. Adjacent to this, cells treated with the prodrugs were incubated without GUS. Incubation was conducted at 37° C. in a humidified, 5% CO2 incubator of three days. Cell growth is measured by crystal violet assay, untreated cells are set at 100%. The IC50 values found in these experiments are depicted in the table beneath.
The human ovarian cancer (OVCAR3) cell line was maintained in DMEM supplemented with 10% heat inactivated FBS and 1% P/S. Inhibition of proliferation of the OVCAR cell line by the doxorubicin prodrugs Dox-allyl, Dox-mGA3, Dox-mPEG4 and Dox-mPEG7 was determined using a crystal violet assay. The assay was preformed in a 96-wells plate. Cells that were harvested by trypsinisation were seeded with 5.000 cells in 100 μl medium per well. The 96-wells plate was incubated overnight at 37° C. in a humidified, 5% CO2 incubator. The different prodrugs were added in concentrations between 0.001 μM to 50 μM. Subsequently, the GUS enzyme was added to give a final concentration of 10 units/μl. This mixture was incubated at 37° C. in a humidified, 5% CO2 incubator for tree days. Subsequently, the cells were stained and fixed with 50 μl 1% crystal violet in 70% ethanol. The cells were washed with water and resolubilized in 100 μl 1% SDS. After this the absorbance was read at 550 nm. The blank extinction values were determined on wells in which no cells were seeded were subtracted from the signals. Inhibition concentrations 50% (IC50) were derived by plotting the inhibition of cell proliferation at different concentrations of the prodrug and non-linear curve fitting.

tumor bearing mice = conditions: based on 10% weight loss, i.v.; cited from earlier work
[1] = tumor bearing mice, half of the MTD; cited from earlier work
[2] = Hydrolysis of prodrug esters in phosphate buffer pH 7.33, followed by reverse phase TLC; type: physicochemical; conditions: phosphate buffer pH=7.33, room temperature
From the text: hydrolyze faster than alkyl esters like DOX-mGA3 due to the better leaving ability of the ester group of 1. This is caused by the electron-withdrawing properties of the triazol functionality. Indeed in a phosphate buffer with pH=7.33 it took 24 hrs at room temperature before DOX-mGA3 was completely hydrolyzed. The DOX derivatives of 1 with n=7 or 12 and x=1 (DOX-mPEG7GA3 and DOX-mPEG12GA3) were, nevertheless, already hydrolyzed within 4 hrs under these circumstances.
The hydrolysis of the DOX esters were qualitatively followed with reverse phase TLC (RP18). With eluens acetonitril/water: 42/58 in a phosphate buffer (KH2PO4/Na2HPO4) of pH=7.33.
DOX-mGA3 0.29 mg was dissolved in 1 ml of buffer together with some drops of DMSO to keep the DOX-mGA3 dissolved. It took 24 hrs before the starting compound had disappeared.
In the same way the hydrolysis of DOX-triazol esters 1 (n=, 7 and 12, x=1) were followed for 0.35 mg/ml and 0.45 mg/ml buffer. Both esters were completely hydrolyzed within 4 hrs.

Solubility in water = type: physicochemical
Procedure: For DOX-triazol ester 1 (DOX-mPEG4GA3) about 0.6 mg prodrug dissolve in 1 ml of water whereas for DOX-mPEG7GA3 already 2.5 mg dissolve in 1 ml of water and for DOX-mPEG12GA3 this has reached more than 15 mg in 1 ml of water.

[3] = has to be administered in a vehicle containing Cremophore EL; cited from earlier work
carboxyl esterases [4] = conditions: mouse plasma; cited from earlier work
carboxyl esterases [5] = conditions: human plasma; cited from earlier work
[6] = cited from earlier work
[7] = no GUS, read-out: IC50 (M) No GUS
[8] = bovine beta-glucuronidase 10 units/μL, read-out: IC50 (M) with GUS (10 units/μL)

Row | IC50 (OVCAR-3 cells; [7]) | IC50 (OVCAR-3 cells; [8]) | solubility in water (Solubility in water) | SMILES | toxicity compared with doxorubicin (OVCAR-3 cells) | also measured
1 | 2.21e-05 M | 6.21e-08 M | about 0.6 mg in 1 ml of water | COCCOCCOCCOCCn1cc(COC(=O)C2OC(OC(=O)Nc3ccc(COC(=O)NC4CC(OC5CC(O)(C(=O)CO)Cc6c(O)c7c(c(O)c65)C(=O)c5c(OC)cccc5C7=O)OC(C)C4O)cc3)C(O)C(O)C2O)nn1 (centres unmarked) [DOX-mPEG4-GA3] | comparable toxicity as doxorubicin | 
2 | 8.33e-06 M | 7.74e-08 M | 2.5 mg in 1 ml of water | COCCOCCOCCOCCOCCOCCOCCn1cc(COC(=O)C2OC(OC(=O)Nc3ccc(COC(=O)NC4CC(OC5CC(O)(C(=O)CO)Cc6c(O)c7c(c(O)c65)C(=O)c5c(OC)cccc5C7=O)OC(C)C4O)cc3)C(O)C(O)C2O)nn1 (centres unmarked) [DOX-mPEG7-GA3] | slightly less toxic | 
3 |  |  | more than 15 mg in 1 ml of water | COCCOCCOCCOCCOCCOCCOCCOCCOCCOCCOCCOCCn1cc(COC(=O)C2OC(OC(=O)Nc3ccc(COC(=O)NC4CC(OC5CC(O)(C(=O)CO)Cc6c(O)c7c(c(O)c65)C(=O)c5c(OC)cccc5C7=O)OC(C)C4O)cc3)C(O)C(O)C2O)nn1 (centres unmarked) [DOX-mPEG12GA3] |  | 

Further lines, the compound ahead of its results:

Row | SMILES | IC50 (OVCAR-3 cells; [7]) | IC50 (OVCAR-3 cells; [8]) | solubility in water (Solubility in water) | toxicity compared with doxorubicin (OVCAR-3 cells) | also measured
4 | COc1cccc2c1C(=O)c1c(O)c3c(c(O)c1C2=O)C[C@@](O)(C(=O)CO)C[C@@H]3O[C@H]1C[C@H](N)[C@H](O)[C@H](C)O1 [DOX, doxorubicin, reference compound] | 6.19e-08 M |  |  |  | maximum tolerated dose (MTD) (tumor bearing mice): 8 mg/kg
5 | COc1cccc2c1C(=O)c1c(O)c3c(c(O)c1C2=O)CC(O)(C(=O)CO)CC3OC1CC(NC(=O)OCc2ccc(NC(=O)OC3OC(C(=O)O)C(O)C(O)C3O)cc2)C(O)C(C)O1 (centres unmarked) [DOX-GA3] |  |  |  |  | maximum tolerated dose (MTD) (tumor bearing mice): approximately 500 mg/kg; concentrations of doxorubicin in plasma versus administration of doxorubicin [1]: significantly lower concentrations of doxorubine in plasma; concentrations of doxorubicin in tumor tissue versus administration of doxorubicin [1]: higher
6 | C=CCOC(=O)C1OC(OC(=O)Nc2ccc(COC(=O)NC3CC(OC4CC(O)(C(=O)CO)Cc5c(O)c6c(c(O)c54)C(=O)c4c(OC)cccc4C6=O)OC(C)C3O)cc2)C(O)C(O)C1O (centres unmarked) [DOX-alGA3] | 9.81e-06 M | 5.84e-08 M |  | comparable toxicity as doxorubicin | 
7 | COC(=O)C1OC(OC(=O)Nc2ccc(COC(=O)NC3CC(OC4CC(O)(C(=O)CO)Cc5c(O)c6c(c(O)c54)C(=O)c4c(OC)cccc4C6=O)OC(C)C3O)cc2)C(O)C(O)C1O (centres unmarked) [DOX-mGA3] |  |  |  |  | time until completely hydrolyzed [2]: 24 h; solubility in water (in words) (Solubility in water): completely insoluble in water; solubility in water (in words, background) [3]: very bad solubility in water; half time of conversion to DOX-GA3 (carboxyl esterases [4]): approximately 05 min; half time of conversion to DOX-GA3 (carboxyl esterases [5]): ~2.5 h; pharmacokinetics in mice (in words) [6]: improved pharmacokinetics
